Measured values reported in patent US10323022B2, “Pyrrolidinyl urea, pyrrolidinyl thiourea and pyrrolidinyl guanidine compounds as TrkA kinase inhibitors” (Array BioPharma Inc., priority 2011, dated 2019).
pIC50: −log10 of the molar value.

target: TrkA (Homo sapiens (Human), UniProt P04629); assay: TrkA Omnia Assay; assay type: biochemical; conditions: averaged IC50; 20 nM enzyme, 500 μM ATP, 10 μM peptide substrate
How it was run: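 Continuous fluorescent kinase read-out (ex 360 nm, em 485 nm) over 70 min, with initial rates fitted to 4- or 5-parameter logistic curves for IC50. Final conditions: 500 μM ATP, 10 μM Omnia Tyr Peptide #4, 20 nM TrkA, MOPS pH 7.5 buffer with MgCl2 and Triton X-100; enzyme and compound preincubated 10 min at ambient temperature.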

TrkA, sequence (P04629 33-796): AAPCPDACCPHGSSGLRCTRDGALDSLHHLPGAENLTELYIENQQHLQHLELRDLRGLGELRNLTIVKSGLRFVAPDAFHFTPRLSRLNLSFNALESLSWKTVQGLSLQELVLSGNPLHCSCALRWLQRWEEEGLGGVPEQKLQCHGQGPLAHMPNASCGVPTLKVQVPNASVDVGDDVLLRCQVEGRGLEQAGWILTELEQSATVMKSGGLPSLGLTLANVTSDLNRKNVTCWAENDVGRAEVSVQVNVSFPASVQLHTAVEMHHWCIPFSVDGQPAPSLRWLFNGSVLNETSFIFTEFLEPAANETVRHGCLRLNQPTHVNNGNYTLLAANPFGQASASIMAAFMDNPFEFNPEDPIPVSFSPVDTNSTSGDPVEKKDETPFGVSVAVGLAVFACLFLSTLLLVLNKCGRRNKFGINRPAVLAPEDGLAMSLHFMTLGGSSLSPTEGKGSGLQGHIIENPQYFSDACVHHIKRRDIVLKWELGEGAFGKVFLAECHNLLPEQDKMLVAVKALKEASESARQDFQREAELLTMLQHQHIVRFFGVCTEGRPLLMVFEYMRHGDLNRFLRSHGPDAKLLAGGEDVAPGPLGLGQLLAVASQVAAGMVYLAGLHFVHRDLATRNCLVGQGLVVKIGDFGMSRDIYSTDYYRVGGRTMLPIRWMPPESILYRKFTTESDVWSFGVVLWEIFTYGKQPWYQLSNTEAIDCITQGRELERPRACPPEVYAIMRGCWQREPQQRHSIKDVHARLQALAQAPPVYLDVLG

pIC50	Compound
> 7.00	COCCN1C[C@@H](NC(=O)Nc2c(C)c([C@H]3C[C@H](O)C3)nn2-c2ccccc2)[C@H](c2ccc(F)cc2)C1 [Example 455, 1-((3S,4R)-4-(4-fluorophenyl)-1-(2-methoxyethyl)pyrrolidin-3-yl)-3-(3-(trans-3-hydroxycyclobutyl)-4-methyl-1-phenyl-1H-pyrazol-5-yl)urea]
> 7.00	COCCN1C[C@@H](NC(=O)Nc2c(C)c([C@H]3C[C@@H](O)C3)nn2-c2ccccc2)[C@H](c2cc(F)cc(F)c2)C1 [Example 456, 1-((3S,4R)-4-(3,5-difluorophenyl)-1-(2-methoxyethyl)pyrrolidin-3-yl)-3-(3-(cis-3-hydroxycyclobutyl)-4-methyl-1-phenyl-1H-pyrazol-5-yl)urea]
> 7.00	COCCN1C[C@@H](NC(=O)Nc2c(C)c([C@H]3C[C@H](O)C3)nn2-c2ccccc2)[C@H](c2cc(F)cc(F)c2)C1 [Example 457, 1-((3S,4R)-4-(3,5-difluorophenyl)-1-(2-methoxyethyl)pyrrolidin-3-yl)-3-(3-(trans-3-hydroxycyclobutyl)-4-methyl-1-phenyl-1H-pyrazol-5-yl)urea]
6.00 to 7.00	COCCN1C[C@@H](NC(=O)Nc2c(C)c(C(=O)O)nn2-c2ccccc2)[C@H](c2ccc(F)c(F)c2)C1 [Example 458, 5-(3-((3S,4R)-4-(3,4-difluorophenyl)-1-(2-methoxyethyl)pyrroidin-3-yl)ureido)-4-methyl-1-phenyl-1H-pyrazole-3-carboxylic acid]
> 7.00	CNC(=O)c1nn(-c2ccccc2)c(NC(=O)N[C@@H]2CN(CCOC)C[C@H]2c2ccc(F)c(F)c2)c1C [Example 459, 5-(3-((3S,4R)-4-(3,4-difluorophenyl)-1-(2-methoxyethyl)pyrrolidin-3-yl)ureido)-N,4-dimethyl-1-phenyl-1H-pyrazole-3-carboxamide]
> 7.00	COCCN1C[C@@H](NC(=O)Nc2c(C)c(C(=O)N(C)C)nn2-c2ccccc2)[C@H](c2ccc(F)c(F)c2)C1 [Example 460, 5-(3-((3S,4R)-4-(3,4-difluorophenyl)-1-(2-methoxyethyl)pyrrolidin-3-yl)ureido)-N,N,4-trimethyl-1-phenyl-1H-pyrazole-3-carboxamide]
> 7.00	CCNC(=O)c1nn(-c2ccccc2)c(NC(=O)N[C@@H]2CN(CCOC)C[C@H]2c2ccc(F)c(F)c2)c1C [Example 461, 5-(3-((3S,4R)-4-(3,4-difluorophenyl)-1-(2-methoxyethyl)pyrrolidin-3-yl)ureido)-N-ethyl-4-methyl-1-phenyl-1H-pyrazole-3-carboxamide]
> 7.00	COCCN1C[C@@H](NC(=O)Nc2c(C)c(C(=O)NC(C)C)nn2-c2ccccc2)[C@H](c2ccc(F)c(F)c2)C1 [Example 462, 5-(3-((3S,4R)-4-(3,4-difluorophenyl)-1-(2-methoxyethyl)pyrrolidin-3-yl)ureido)-N-isopropyl-4-methyl-1-phenyl-1H-pyrazole-3-carboxamide]
> 7.00	COCCN1C[C@@H](NC(=O)Nc2c(C)c(C(N)=O)nn2-c2ccccc2)[C@H](c2ccc(F)c(F)c2)C1 [Example 463, 5-(3-((3S,4R)-4-(3,4-difluorophenyl)-1-(2-methoxyethyl)pyrrolidin-3-yl)ureido)-4-methyl-1-phenyl-1H-pyrazole-3-carboxamide]
> 7.00	CCOc1nn(-c2ccccc2)c(NC(=O)N[C@@H]2CN(CCOC)C[C@H]2c2cc(F)cc(F)c2)c1CO [Example 464, 1-((3S,4R)-4-(3,5-difluorophenyl)-1-(2-methoxyethyl)pyrrolidin-3-yl)-3-(3-ethoxy-4-(hydroxymethyl)-1-phenyl-1H-pyrazol-5-yl)urea]
> 7.00	COCCN1C[C@@H](NC(=O)Nc2c(C)c(-c3cnn(C)c3)nn2-c2ccccc2)[C@H](c2ccc(F)c(Cl)c2)C1 [Example 465, 1-((3S,4R)-4-(3-chloro-4-fluorophenyl)-1-(2-methoxyethyl)pyrrolidin-3-yl)-3-(1′,4-dimethyl-1-phenyl-1H, 1′H-3,4′-bipyrazol-5-yl)urea]
> 7.00	COCCN1C[C@@H](NC(=O)Nc2c(C)c(-c3cnn(C)c3)nn2-c2ccccc2)[C@H](c2ccc(Cl)c(F)c2)C1 [Example 466, 1-((3S,4R)-4-(4-chloro-3-fluorophenyl)-1-(2-methoxyethyl)pyrrolidin-3-yl)-3-(1′,4-dimethyl-1-phenyl-1H, 1′H-3,4′-bipyrazol-5-yl)urea]
> 7.00	COCCN1C[C@@H](NC(=O)Nc2c(C)c(-c3cnn(C)c3)nn2-c2ccccc2)[C@H](c2cc(F)cc(Cl)c2)C1 [Example 467, 1-((3S,4R)-4-(3-chloro-5-fluorophenyl)-1-(2-methoxyethyl)pyrrolidin-3-yl)-3-(1′,4-dimethyl-1-phenyl-1H, 1′H-3,4′-bipyrazol-5-yl)urea]
> 7.00	CCOc1nn(-c2ccccc2)c(NC(=O)N[C@@H]2CN(CC(=O)OC)C[C@H]2c2ccc(F)c(F)c2)c1C [Example 468, methyl 2-((3R,4S)-3-(3,4-difluorophenyl)-4-(3-(3-ethoxy-4-methyl-1-phenyl-1H-pyrazol-5-yl)ureido)pyrrolidin-1-yl)acetate]
5.00 to 6.00	CCOc1nn(-c2ccccc2)c(NC(=O)N[C@@H]2CN(CC(O)C(F)(F)F)C[C@H]2c2ccc(F)c(F)c2)c1C (stereo partly drawn) [Example 469, 1-((3S,4R)-4-(3,4-difluorophenyl)-1-(3,3,3-trifluoro-2-hydroxypropyl)pyrrolidin-3-yl)-3-(3-ethoxy-4-methyl-1-phenyl-1H-pyrazol-5-yl)urea]
6.00 to 7.00	CCOc1nn(-c2ccccc2)c(NC(=O)N[C@@H]2CN(CC(C)O)C[C@H]2c2ccc(F)c(F)c2)c1C (stereo partly drawn) [Example 470, 1-((3S,4R)-4-(3,4-difluorophenyvl)-1-(2-hydroxypropyl)pyrrolidin-3-yl)-3-(3-ethoxy-4-methyl-1-phenyl-1H-pyrazol-5-yl)urea]
6.00 to 7.00	CCOc1nn(-c2ccccc2)c(NC(=O)N[C@@H]2CN(CCC#N)C[C@H]2c2ccc(F)c(F)c2)c1C [Example 471, 1-((3S,4R)-1-(2-cyanoethyl)-4-(3,4-difluorophenyl)pyrrolidin-3-yl)-3-(3-ethoxy-4-methyl-1-phenyl-1H-pyrazol-5-yl)urea]
6.00 to 7.00	CCOc1nn(-c2ccccc2)c(NC(=O)N[C@@H]2CN(CC(=O)NC)C[C@H]2c2ccc(F)c(F)c2)c1C [Example 472, 2-((3R,4S)-3-(3,4-difluorophenyl)-4-(3-(3-ethoxy-4-methyl-1-phenyl-1H-pyrazol-5-yl)ureido)pyrrolidin-1-yl)-N-methylacetamide]
> 7.00	COCCN1C[C@@H](NC(=O)Nc2c(C)c(C)nn2C2CCCCC2)[C@H](c2ccc(F)c(F)c2)C1 [Example 473, 1-(1-cyclohexyl-3,4-dimethyl-1H-pyrazol-5-yl)-3-((3 S,4R)-4-(3,4-difluorophenyl)-1-(2-methoxyethyl)pyrrolidin-3-yl)urea]
> 7.00	COCCN1C[C@@H](NC(=O)Nc2c(C)c(OCC(CO)CO)nn2-c2ccccc2)[C@H](c2ccc(F)c(F)c2)C1 [Example 474, 1-((3S,4R)-4-(3,4-difluorophenyl)-1-(2-methoxyethyl)pyrrolidin-3-yl)-3-(3-(3-hydroxy-2-(hydroxymethyl)propoxy)-4-methyl-1-phenyl-1H-pyrazol-5-yl)urea]
